PubChem BioAssay AID1963840 (Molecular Pharmacology Branch, DTP, NCI, 2024)

System: 695427-040-R-J1-PDC complex spheroid viability
Test: Anticancer human tumor 695427-040-R-J1-PDC patient-derived colon adenocarcinoma cell line growth inhibition [POLQ]
Conditions: for IC50: curve of first compound; for viability, T/C: stronger effect = lower value; active = viability on the fitted dose curve at most 10% of control; inactive = the rest
Method: Multicellular complex tumor spheroid response to Polymerase (POL) inhibitors (novobiocin, ART-558, RP6685) in combination with a variety of drugs and investigational agents in selected tumor cell lines
The POL inhibitors (novobiocin, ART-558, and RP6685) were evaluated both individually and in combination with standard of care and investigational anticancer small molecules within a complex spheroid model of solid tumors. . Complex spheroids include a stromal component modeled by human endothelial cells (HUVEC) and fibroblasts modeled by human mesenchymal stem cells (MSCs). The concentration ranges selected for each drug and investigational agent were based upon clinically achievable concentrations if the clinical Cmax of the agent was known.
Compounds. The drugs and investigational agents: novobiocin (NSC847541), ART-558 (NSC835418), RP-6685 (NSC848927), peposertib (NSC802822), ceralasertib (NSC780249), elimusertib (NSC800525), camonsertib (NSC841442), AZD-1390 (NSC803789), olaparib (NSC753686), talazoparib (NSC767125), rucaparib (NSC756644), sotorasib (NSC818433), MRTX-1133 (NSC836407), SN-38 (NSC673596), topotecan (NSC609699), epotoside (NSC141540), doxorubicin (NSC123127), gemcitabine (NSC613327), 5-fluorouracil (NSC19893), paclitaxel (NSC125973), vemurafenib (NSC761431), MSA-2 (NSC828583), SN-011 (NSC837082), adavosertib (NSC754352), prexasertib (NSC758257), carboplatin (NSC241240) and oxaliplatin (NSC266046), were obtained from the National Cancer Institute (NCI) Developmental Therapeutics Program Chemical Repository (21). The FDA-approved anticancer drug set is available from the Developmental Therapeutics Program at https://dtp.cancer.gov/organization/dscb/obtaining/. […] The stock solutions were prepared in dimethyl sulfoxide (DMSO, Sigma-Aldrich, St. Louis, MO, cat. D2650), except for the platinum compounds which were prepared in saline (Quality Biological, Gaithersburg, MD, cat. 114-055-101), at 800-fold the tested concentration and stored at -70 degrees C prior to their use. All drugs and investigational agents were tested over a range starting from a high concentration at or near the clinical Cmax and decreasing in half-log increments. If the clinical Cmax for an agent had not been determined, the highest concentration tested was 10 microM, except for SN-38, which was tested at a high concentration of 1 microM.
Cell Culture. All cells were maintained in an incubator at 37 degrees C and 5% CO2 with 95% humidity. The PDC lines were cultured according to standard operating procedures established by the NCI PDMR (https://pdmr.cancer.gov). Table 3 of the manuscript, lists the cell lines along with the number of the three cell types plated to form the mct-spheroids and media for tumor cell growth. After thawing, all PDC lines, except 997537-175-T-J1-PDC and 415267-285-R-J2-PDC, were cultured in Matrigel-coated flasks prepared with a working solution of 1X Ham's F-12 nutrient mix, without supplementation (Thermo Fisher Scientific, cat. 11765054), 100 U/mL penicillin-streptomycin (Thermo Fisher Scientific, cat. 15140122), and 2.5% Matrigel (Corning Inc., Corning, NY, cat. 354248) for the first three passages. The two PDC lines 997537-175-T-J1-PDC and 415267-285-R-J2-PDC were cultured on uncoated flasks. The 857933-349-R-J2-PDC line was cultured in 6C/Colon 1B media containing advanced DMEM/F-12 (Thermo Fisher Scientific, cat. 12634028), 10 mM HEPES (Thermo Fisher Scientific, cat. 15630080), 1X GlutaMAX supplement (Thermo Fisher Scientific, cat. 35050061), 0.1 mg/mL primocin (InvivoGen, San Diego, CA, cat. ant-pm-2), 10% defined fetal bovine serum, heat inactivated (HyClone Laboratories Inc., Logan, UT, cat. SH30070.03HI), 50% L-WRN conditioned media (ATCC, cat. CRL-3276), 1.25 mM N-Acetyl-L-cysteine (Sigma-Aldrich, cat. A9165), 10 mM nicotinamide (Sigma-Aldrich, cat. N0636), 1X B-27 supplement (Thermo Fisher Scientific, cat. 17504044), 1X N-2 supplement (Thermo Fisher Scientific, cat. […]
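Note: spheroids exposed to compounds for seven days.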

CNCc1ccc(-c2[nH]c3cc(F)cc4c3c2CCNC4=O)cc1 + COC1C(OC(N)=O)C(O)C(Oc2ccc3c(O)c(NC(=O)c4ccc(O)c(CC=C(C)C)c4)c(=O)oc3c2C)OC1(C)C
inactive: viability, T/C (second compound 0.0316 µM, first compound 0.0316 µM) 94.5% | viability, T/C (second compound 0.0316 µM, first compound 0.1 µM) 96.1% | viability, T/C (second compound 0.0316 µM, first compound 0.316 µM) 108% | viability, T/C (second compound 0.0316 µM, first compound 1 µM) 99.7% | viability, T/C (second compound 0.0316 µM, first compound 3.16 µM) 112% | viability, T/C (second compound 0.0316 µM, first compound 10 µM) 103% | viability, T/C (second compound 0.1 µM, first compound 0.0316 µM) 108% | viability, T/C (second compound 0.1 µM, first compound 0.1 µM) 95.1% | viability, T/C (second compound 0.1 µM, first compound 0.316 µM) 107% | viability, T/C (second compound 0.1 µM, first compound 1 µM) 103% | viability, T/C (second compound 0.1 µM, first compound 3.16 µM) 112% | viability, T/C (second compound 0.1 µM, first compound 10 µM) 111% | viability, T/C (second compound 0.316 µM, first compound 0.0316 µM) 101% | viability, T/C (second compound 0.316 µM, first compound 0.1 µM) 99.8% | viability, T/C (second compound 0.316 µM, first compound 0.316 µM) 94.5% | viability, T/C (second compound 0.316 µM, first compound 1 µM) 96.8% | viability, T/C (second compound 0.316 µM, first compound 3.16 µM) 115% | viability, T/C (second compound 0.316 µM, first compound 10 µM) 105% | viability, T/C (second compound 1 µM, first compound 0.0316 µM) 97.6% | viability, T/C (second compound 1 µM, first compound 0.1 µM) 95% | viability, T/C (second compound 1 µM, first compound 0.316 µM) 105% | viability, T/C (second compound 1 µM, first compound 1 µM) 103% | viability, T/C (second compound 1 µM, first compound 3.16 µM) 112% | viability, T/C (second compound 1 µM, first compound 10 µM) 115% | viability, T/C (second compound 3.16 µM, first compound 0.0316 µM) 101% | viability, T/C (second compound 3.16 µM, first compound 0.1 µM) 99.3% | viability, T/C (second compound 3.16 µM, first compound 0.316 µM) 108% | viability, T/C (second compound 3.16 µM, first compound 1 µM) 93.2% | viability, T/C (second compound 3.16 µM, first compound 3.16 µM) 117% | viability, T/C (second compound 3.16 µM, first compound 10 µM) 103% | viability, T/C (second compound 10 µM, first compound 0.0316 µM) 98.1% | viability, T/C (second compound 10 µM, first compound 0.1 µM) 91.8% | viability, T/C (second compound 10 µM, first compound 0.316 µM) 106% | viability, T/C (second compound 10 µM, first compound 1 µM) 109% | viability, T/C (second compound 10 µM, first compound 3.16 µM) 114% | viability, T/C (second compound 10 µM, first compound 10 µM) 113%
> 10 µM: IC50 (second compound 0.0316 µM) | IC50 (second compound 0.1 µM) | IC50 (second compound 0.316 µM) | IC50 (second compound 1 µM) | IC50 (second compound 3.16 µM) | IC50 (second compound 10 µM)
